Assay results: US20100068545A1, “Compositions and methods for wood preservation” (priority 2005, published 2010)

Columns and labels:
[1] = tested on: decay fungi; assay: AWPA E7-01 field stake test, decay ratings, Gainesville, Florida; assay type: in vivo; set-up: scale not given here
Experimental: (§1) Preservative treating solutions were prepared by the mixing the concentrates in Example 1 with ethanol. The treated stakes were installed in Gainesville, Fla. for field performance evaluation following the procedure described in American Wood Preservers' Association (AWPA) Standard E7-01: “Standard Method of Evaluating Wood Preservatives by Field Tests with Stakes”.
(§2) Preservative treating solutions were prepared by the mixing the concentrates in Example 1 with toluene. The treated stakes were installed in Gainesville, Fla. for field performance evaluation following the procedure described in American Wood Preservers' Association (AWPA) Standard E7-01: “Standard Method of Evaluating Wood Preservatives by Field Tests with Stakes”.
Preservative treating solutions were prepared by the mixing the concentrates in Example 2 and 13. The treated stakes were installed in Gainesville, Fla. for field performance evaluation following the procedure described in American Wood Preservers' Association (AWPA) Standard E7-01: “Standard Method of Evaluating Wood Preservatives by Field Tests with Stakes”. […]

[2] = tested on: termites; assay: AWPA E7-01 field stake test, termite ratings, Gainesville, Florida; assay type: in vivo; set-up: scale not given here
Experimental: as §1, §2
Preservative treating solutions were prepared by the mixing the concentrates in Example 2 and 13. The treated stakes were installed in Gainesville, Fla. for field performance evaluation following the procedure described in American Wood Preservers' Association (AWPA) Standard E7-01: “Standard Method of Evaluating Wood Preservatives by Field Tests with Stakes”.
Preservative treating solutions were prepared by the mixing the concentrates in Example 1 with white spirits. The treated stakes were installed in Gainesville, Fla. for field performance evaluation following the procedure described in American Wood Preservers' Association (AWPA) Standard E7-01: “Standard Method of Evaluating Wood Preservatives by Field Tests with Stakes”.

[3] = tested on: brown rots or white rots; assay: Accelerated decay testing in the lab; conditions: pyrethroid insecticide alone
Text: Provided herein is an organic composition and method for use thereof in treatment of cellulosic material, more particularly wood. The composition comprises an azole or quaternary ammonium fungicide compound, and a pyrethroid insecticide. The composition imparts to the treated wood resistance to both fungi and insects. […] This has been confirmed by accelerated decay testing in the lab.

[4] = 12 months, retention 0.32 kg/m^3, Ex. 14, ethanol solution
[5] = 12 months, retention 0.32 kg/m^3, Ex. 15, toluene solution
[6] = 12 months, retention 0.32 kg/m^3, Ex. 16, concentrates of Ex. 2 and 13
[7] = 12 months, retention 0.48 kg/m^3, Ex. 14, ethanol solution
[8] = 12 months, retention 0.48 kg/m^3, Ex. 15, toluene solution
[9] = 12 months, retention 0.48 kg/m^3, Ex. 16, concentrates of Ex. 2 and 13
[10] = 12 months, retention 0.64 kg/m^3, Ex. 14, ethanol solution
[11] = 12 months, retention 0.64 kg/m^3, Ex. 15, toluene solution
[12] = 12 months, retention 0.64 kg/m^3, Ex. 16, concentrates of Ex. 2 and 13
[13] = 24 months, retention 0.32 kg/m^3, Ex. 14, ethanol solution
[14] = 24 months, retention 0.32 kg/m^3, Ex. 15, toluene solution
[15] = 24 months, retention 0.32 kg/m^3, Ex. 16, concentrates of Ex. 2 and 13
[16] = 24 months, retention 0.48 kg/m^3, Ex. 14, ethanol solution
[17] = 24 months, retention 0.48 kg/m^3, Ex. 15, toluene solution
[18] = 24 months, retention 0.48 kg/m^3, Ex. 16, concentrates of Ex. 2 and 13
[19] = 24 months, retention 0.64 kg/m^3, Ex. 14, ethanol solution
[20] = 24 months, retention 0.64 kg/m^3, Ex. 15, toluene solution
[21] = 24 months, retention 0.64 kg/m^3, Ex. 16, concentrates of Ex. 2 and 13
[22] = 36 months, retention 0.32 kg/m^3, Ex. 14, ethanol solution
[23] = 36 months, retention 0.32 kg/m^3, Ex. 15, toluene solution
[24] = 36 months, retention 0.32 kg/m^3, Ex. 16, concentrates of Ex. 2 and 13
[25] = 36 months, retention 0.48 kg/m^3, Ex. 14, ethanol solution
[26] = 36 months, retention 0.48 kg/m^3, Ex. 15, toluene solution
[27] = 36 months, retention 0.48 kg/m^3, Ex. 16, concentrates of Ex. 2 and 13
[28] = 36 months, retention 0.64 kg/m^3, Ex. 14, ethanol solution
[29] = 36 months, retention 0.64 kg/m^3, Ex. 15, toluene solution
[30] = 36 months, retention 0.64 kg/m^3, Ex. 16, concentrates of Ex. 2 and 13
[31] = 48 months, retention 0.32 kg/m^3, Ex. 14, ethanol solution
[32] = 48 months, retention 0.32 kg/m^3, Ex. 15, toluene solution
[33] = 48 months, retention 0.32 kg/m^3, Ex. 16, concentrates of Ex. 2 and 13
[34] = 48 months, retention 0.48 kg/m^3, Ex. 14, ethanol solution
[35] = 48 months, retention 0.48 kg/m^3, Ex. 15, toluene solution
[36] = 48 months, retention 0.48 kg/m^3, Ex. 16, concentrates of Ex. 2 and 13
[37] = 48 months, retention 0.64 kg/m^3, Ex. 14, ethanol solution
[38] = 48 months, retention 0.64 kg/m^3, Ex. 15, toluene solution
[39] = 48 months, retention 0.64 kg/m^3, Ex. 16, concentrates of Ex. 2 and 13

SMILES: CC(C)(C)C(O)(CCc1ccc(Cl)cc1)Cn1cncn1 (racemic) [Tebuconazole, (RS)-1-p-chlorophenyl-4,4-dimethyl-3-(1H-1,2,4-triazol-1-ylmethyl)pentan-3-ol]
- Average Decay Rating [1, 4]: 8.2
- Average Decay Rating [1, 5]: 8.2
- Average Decay Rating [1, 6]: 8.2
- Average Decay Rating [1, 7]: 5.8
- Average Decay Rating [1, 8]: 5.8
- Average Decay Rating [1, 9]: 5.8
- Average Decay Rating [1, 10]: 8.7
- Average Decay Rating [1, 11]: 8.7
- Average Decay Rating [1, 12]: 8.7
- Average Decay Rating [1, 13]: 2.6
- Average Decay Rating [1, 14]: 2.6
- Average Decay Rating [1, 15]: 2.6
- Average Decay Rating [1, 16]: 0.8
- Average Decay Rating [1, 17]: 0.8
- Average Decay Rating [1, 18]: 0.8
- Average Decay Rating [1, 19]: 1.2
- Average Decay Rating [1, 20]: 1.2
- Average Decay Rating [1, 21]: 1.2
- Average Decay Rating [1, 22]: 0.0
- Average Decay Rating [1, 23]: 0.0
- Average Decay Rating [1, 24]: 0.0
- Average Decay Rating [1, 25]: 0.0
- Average Decay Rating [1, 26]: 0.0
- Average Decay Rating [1, 27]: 0.0
- Average Decay Rating [1, 28]: 0.0
- Average Decay Rating [1, 29]: 0.0
- Average Decay Rating [1, 30]: 0.0
- Average Decay Rating [1, 31]: 0.0
- Average Decay Rating [1, 32]: 0.0
- Average Decay Rating [1, 33]: 0.0
- Average Decay Rating [1, 34]: 0.0
- Average Decay Rating [1, 35]: 0.0
- Average Decay Rating [1, 36]: 0.0
- Average Decay Rating [1, 37]: 0.0
- Average Decay Rating [1, 38]: 0.0
- Average Decay Rating [1, 39]: 0.0
- Average Termite Rating [2, 4]: 4.2
- Average Termite Rating [2, 5]: 4.2
- Average Termite Rating [2, 6]: 4.2
- Average Termite Rating [2, 7]: 4.5
- Average Termite Rating [2, 8]: 4.5
- Average Termite Rating [2, 9]: 4.5
- Average Termite Rating [2, 10]: 4.8
- Average Termite Rating [2, 11]: 4.8
- Average Termite Rating [2, 12]: 4.8
- Average Termite Rating [2, 13]: 0.6
- Average Termite Rating [2, 14]: 0.6
- Average Termite Rating [2, 15]: 0.6
- Average Termite Rating [2, 16]: 1.2
- Average Termite Rating [2, 17]: 1.2
- Average Termite Rating [2, 18]: 1.2
- Average Termite Rating [2, 19]: 2.0
- Average Termite Rating [2, 20]: 2.0
- Average Termite Rating [2, 21]: 2.0
- Average Termite Rating [2, 22]: 0.0
- Average Termite Rating [2, 23]: 0.0
- Average Termite Rating [2, 24]: 0.0
- Average Termite Rating [2, 25]: 0.0
- Average Termite Rating [2, 26]: 0.0
- Average Termite Rating [2, 27]: 0.0
- Average Termite Rating [2, 28]: 0.0
- Average Termite Rating [2, 29]: 0.0
- Average Termite Rating [2, 30]: 0.0
- Average Termite Rating [2, 31]: 0.0
- Average Termite Rating [2, 32]: 0.0
- Average Termite Rating [2, 33]: 0.0
- Average Termite Rating [2, 34]: 0.0
- Average Termite Rating [2, 35]: 0.0
- Average Termite Rating [2, 36]: 0.0
- Average Termite Rating [2, 37]: 0.0
- Average Termite Rating [2, 38]: 0.0
- Average Termite Rating [2, 39]: 0.0

SMILES: Cc1c(COC(=O)[C@@H]2[C@H](/C=C(\Cl)C(F)(F)F)C2(C)C)cccc1-c1ccccc1 (racemic) [bifenthrin]
- Fungicidal activity against brown rots or white rots [3]: generally do not have fungicidal activity

SMILES: CC1(C)C(C=C(Cl)Cl)C1C(=O)OC(C#N)c1cccc(Oc2ccccc2)c1 (stereo not drawn) [cypermethrin]
- Fungicidal activity against brown rots or white rots [3]: generally do not have fungicidal activity

SMILES: CC1(C)C(C=C(Cl)Cl)C1C(=O)OCc1cccc(Oc2ccccc2)c1 (stereo not drawn) [permethrin]
- Fungicidal activity against brown rots or white rots [3]: generally do not have fungicidal activity
